The text below walks through data of patent US20080125477A1, “7-(ACRYLOYL) INDOLE COMPOSITIONS AND METHODS OF MAKING AND USING SAME” (DECODE GENETICS, EHF., priority 2006, published 2008).

SMILES strings stand for the structures. In brackets after ≈: the same amount, converted by molar mass.

Data set [1] is described as follows: aqueous solubility of micronized DTSI in surfactant/amine solutions. In kind it is physicochemical. Particulars: for solubility at 60 min: thermodynamic from solid, micronized DTSI. The method, then: The solubility of DTSI in aqueous PEG, cyclodextrins, glycerides and other solvent systems was evaluated. Excess amount of the DTSI was added to the aqueous compatible/complexation media, the suspension formed was sonicated for 60 minutes (and also heated up to 75° C. e.g. for cyclodextrins). The suspensions at room temperature were filtered and the amount of dissolved drug was determined by HPLC.

In data set [2] the target is T1, prostanoid hEP3 receptors (Homo sapiens, UniProt P43115).
T1 sequence (P43115 1-390): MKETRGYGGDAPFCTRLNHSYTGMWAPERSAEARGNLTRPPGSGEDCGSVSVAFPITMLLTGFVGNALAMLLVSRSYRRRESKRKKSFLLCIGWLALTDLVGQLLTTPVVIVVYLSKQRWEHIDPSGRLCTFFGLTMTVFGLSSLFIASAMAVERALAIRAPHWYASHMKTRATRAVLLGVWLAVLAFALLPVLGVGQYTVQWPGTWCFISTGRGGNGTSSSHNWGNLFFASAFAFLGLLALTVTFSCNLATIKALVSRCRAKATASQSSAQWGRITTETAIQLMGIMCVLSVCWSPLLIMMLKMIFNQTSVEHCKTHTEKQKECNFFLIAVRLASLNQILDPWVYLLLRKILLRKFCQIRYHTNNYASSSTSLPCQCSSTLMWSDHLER
Briefly: binding on prostanoid hEP3 receptors. The procedure: DTSI and related compounds were assayed for binding on prostanoid hEP3 receptors according to the method of Abramovitz et al [Bioch. Biophys.

In a further data set the test system is human platelets. Briefly: platelet aggregation in vitro, human platelets. Particulars: agonist Sulprostone (100 nM) and collagen (0.125 ug.mL), Serum % 100. In kind it is cell-based. The method, then: (§1) DTSI and related compounds were assayed for their effect on platelet aggregation in vitro. In experiments with human platelets, whole blood was extracted from overnight-fasted human donors. Each experiment was performed with blood from a single individual. In experiments with rodent platelets, whole blood was gathered from the heart of female mice or male rats under isofluran (Abbott) anaesthesia. Blood was pooled from two or ten individual rodents for each experiment in the case of rat and mouse experiments, respectively. In all cases, blood was collected into 3.8% sodium citrate tubes (Greiner Bio-one). Platelet-rich plasma (PRP) was obtained by centrifugation at 100×g for 15 min at 25° C. for humans, at 150×g for rats, or at 80×g for 10 min for mice. Platelet-poor plasma was obtained by centrifugation of the remaining blood at 2,400×g for 10 min at 25° C. After counting in an Autocounter (Model 920 EO, Swelab) platelets were diluted when necessary to the desired stock concentrations (200,000-300,000 platelets/μl) using 0.9% NaCl isotonic solution (Braun).
(§2) Platelet aggregation was determined by light absorbance using a platelet aggregometer with constant magnetic stirring (Model 490, Chronolog Cop., Havertown, Pa., USA), using a volume of 500 μl per cuvette. […] IC50 values were calculated using GraphPad Prism 3.02 for Windows (GraphPad Software, San Diego, Calif. USA). […]

Data set [3] concerns pulmonary thromboembolism by arachidonic acid. The experiment in a line: pulmonary thromboembolism assay (platelet aggregation in vivo). Particulars: 100 mg/kg orally, 30 min before arachidonic acid 30 mg/kg i.v.; survival one hour after challenge.
Method: DTSI was also assayed for its effects on platelet aggregation in vivo. […] For the pulmonary thromboembolism assay, conscious female C57BL/6 mice were dosed orally with the test compounds and 30 min later thromboembolism was induced by injection of arachidonic acid into a tail vein at a dose of 30 mg per kg body weight. Survival was evaluated one hour after the challenge with arachidonic acid, as mice that survive for that length of time usually recovered fully. The arachidonic acid injection was given via a lateral tail vein in a mouse that had been warmed briefly under a heat lamp (dilation of the tail veins using heat facilitates placing the injection). An insulin syringe, 0. 5 mL (from Becton Dickinson) was used for dosing. The dose volume given of both the test compound and the arachidonic acid was adjusted to the weight of the mouse (the dose volume p.o. for test compounds and i.v. for arachidonic acid solution was 10 μL and 5 μL per gram body weight, respectively).
For the next data set, the system named is rodent platelets (rat). The experiment in a line: platelet aggregation in vitro, rat platelets. Format: cell-based. Particulars: agonist Sulprostone (100 nM) and collagen (2.0 ug.mL), Serum % 20. The procedure: as §1, §2

Regarding `Cc1cn(Cc2ccc(Cl)cc2Cl)c2c(/C=C/C(=O)NS(=O)(=O)c3cc(Cl)c(Cl)s3)cc(F)cc12` [DTSI, 4,5-dichlorothiophene-2-sulfonic acid [(E)-3-[1-(2,4-dichlorophenylmethyl)-5-fluoro-3-methyl-1H-indol-7-yl]-acryloyl]amide], the “aqueous solubility (in words)” value in data set [1] was “poor”. The solubility at 60 min in data set [1] (aqueous solution of 5% Cremophor RH40, aqueous with cosolvent or surfactant or cyclodextrin, 5% Cremophor RH40) came out at 170 µg/mL (≈ 0.287 mM); in data set [1] (aqueous solution of 5% Cremophor RH40 and 1% diethanolamine, aqueous with cosolvent or surfactant or cyclodextrin, 5% Cremophor RH40 and 1% diethanolamine), 22700 µg/mL (≈ 38.3 mM); in data set [1] (aqueous solution of 5% Cremophor RH40 and 1% ethanolamine, aqueous with cosolvent or surfactant or cyclodextrin, 5% Cremophor RH40 and 1% ethanolamine), 8900 µg/mL (≈ 15 mM); in data set [1] (aqueous solution of 5% Cremophor RH40 and 1% triethanolamine, aqueous with cosolvent or surfactant or cyclodextrin, 5% Cremophor RH40 and 1% triethanolamine) it was 8300 µg/mL (≈ 14 mM); in data set [1] (aqueous solution of 5% Cremophor RH40 and 1% tromethamine, aqueous with cosolvent or surfactant or cyclodextrin, 5% Cremophor RH40 and 1% tromethamine) it was 8700 µg/mL (≈ 14.7 mM); in data set [1] (aqueous solution of 5% Vitamin E TPGS and 1% choline, aqueous with cosolvent or surfactant or cyclodextrin, 5% Vitamin E TPGS and 1% choline), 46600 µg/mL (≈ 78.7 mM). Further, the solubility at 60 min in data set [1] (aqueous solution of 5% Vitamin E TPGS and 1% diethanolamine, aqueous with cosolvent or surfactant or cyclodextrin, 5% Vitamin E TPGS and 1% diethanolamine) is 20400 µg/mL (≈ 34.4 mM); in data set [1] (aqueous solution of 5% Vitamin E TPGS and 1% ethanolamine, aqueous with cosolvent or surfactant or cyclodextrin, 5% Vitamin E TPGS and 1% ethanolamine), 19200 µg/mL (≈ 32.4 mM); in data set [1] (aqueous solution of 5% Vitamin E TPGS and 1% triethanolamine, aqueous with cosolvent or surfactant or cyclodextrin, 5% Vitamin E TPGS and 1% triethanolamine) it was 9200 µg/mL (≈ 15.5 mM); in data set [1] (aqueous solution of 5% Vitamin E TPGS and 1% tromethamine, aqueous with cosolvent or surfactant or cyclodextrin, 5% Vitamin E TPGS and 1% tromethamine), 8500 µg/mL (≈ 14.4 mM); in data set [1] (aqueous solution of 5% Vitamin E TPGS and 5% diethanolamine, aqueous with cosolvent or surfactant or cyclodextrin, 5% Vitamin E TPGS and 5% diethanolamine) it was 58500 µg/mL (≈ 98.8 mM); in data set [1] (aqueous solution of 5% Vitamin E TPGS, aqueous with cosolvent or surfactant or cyclodextrin, 5% Vitamin E TPGS), 100 µg/mL (≈ 0.169 mM). The concentration in solution in data set [1] (aqueous with cosolvent or surfactant or cyclodextrin, 5% Vitamin E TPGS and 0.5% diethanolamine) (solubility at 60 min) was 15600 µg/mL (≈ 26.3 mM). The “EP3 receptor antagonism (in words)” value in data set [2] is reported as “potent, selective EP3 receptor antagonist”. In addition, the IC50 was 218 nM in the data set with human platelets and 83 nM in the data set with rodent platelets (rat). For the same compound, the Survival rate in data set [3] came out at 68%.
